In the test the test system is Mycobacterium tuberculosis. As to the kind of experiment: Antimycobacterial activity against Mycobacterium tuberculosis H37Rv harboring qcrB deletion mutant assessed as inhibition of bacterial growth incubated for 7 days by resazurin microplate assay. To be noted: time 7 day. The format is functional.

In brackets after ≈: the same amount, converted by molar mass.

Broadly, the MIC is the lowest concentration found to suppress growth. Consider `COc1ccc(N2CCN(c3ccc(CNC(=O)COc4ncnc5ccccc45)cc3)CC2)cc1`, for which the MIC is above 32 µM.

In the case of `COc1ccc(NC(=O)COc2ncnc3ccccc23)cc1`, the MIC was above 32 µM.

Regarding `COc1ccccc1NC(=O)COc1ncnc2ccccc12`, the MIC is above 32 µM. Under `O=C(Cn1cnc2ccccc2c1=O)Nc1ccc(Br)cc1` stands above 32 µM. In the case of `O=C(COc1ncnc2ccccc12)Nc1ccc(F)cc1`, the MIC was above 32 µM.

As for `O=C(COc1ncnc2ccccc12)NCc1ccc(N2CCC(c3ccccc3)CC2)cc1`, the minimal inhibitory concentration (MIC) is above 32 µM. As for `CSc1ccc(NC(=O)Cn2cnc3ccccc3c2=O)cc1`, the MIC was above 32 µM. As to `O=C(COc1ncnc2ccccc12)NCc1ccc(N2CCN(c3ccccc3)CC2)cc1`, the MIC was above 32 µM.

`O=C(COc1ncnc2ccccc12)Nc1ccc(Br)cc1`: the MIC was above 32 µM.

As for `O=C(Cn1cnc2ccccc2c1=O)Nc1ccc(C(F)(F)F)cc1`, the MIC was above 32 µM. Take `O=C(COc1ncnc2ccccc12)Nc1ccc(C(F)(F)F)cc1`: the MIC was above 32 µM. `Cc1ccc(NC(=O)COc2ncnc3ccccc23)cc1`: the MIC is above 32 µM. Turning to `O=C(Cn1cnc2ccccc2c1=O)Nc1ccccc1`, the MIC was above 32 µM. For the molecule `O=C(COc1ncnc2ccccc12)NCc1ccc(N2CCN(c3ccc(F)cc3)CC2)cc1`, the MIC is above 32 µM. The same measure for `O=C(Cn1cnc2ccccc2c1=O)Nc1ccc(F)cc1`: above 32 µM; for `O=C(Cn1cnc2ccccc2c1=O)NC1=C(C(F)(F)F)CCC=C1`: above 32 µM.

With `O=C(COc1ncnc2ccccc12)Nc1cccc2ccccc12`, the MIC was above 32 µM. Turning to `COc1ccccc1NC(=O)Cn1cnc2ccccc2c1=O`, the MIC was above 32 µM. With `COc1ccc(NC(=O)Cn2cnc3ccccc3c2=O)cc1`, the MIC is above 32 µM.

As to `O=C(COc1ncnc2ccccc12)NCc1ccccc1`, the MIC was above 32 µM.

`Cc1ccc(NC(=O)Cn2cnc3ccccc3c2=O)cc1`: the MIC is above 32 µM. As to `O=C(Cn1cnc2ccccc2c1=O)Nc1ccc([N+](=O)[O-])cc1`, the MIC was above 32 µM.

For `O=C(COc1ncnc2ccccc12)NCc1ccc(N2CCN(Cc3ccccc3)CC2)cc1`, the MIC was above 32 µM. With `Cc1ccccc1NC(=O)COc1ncnc2ccccc12`, the MIC was above 32 µM. With `O=C(COc1ncnc2ccccc12)Nc1ccc(Cl)cc1`, the MIC was found to be 16 µM (≈ 5.02 µg/mL). Take `O=C(Cn1cnc2ccccc2c1=O)Nc1ccc(Cl)cc1`: the minimum inhibitory concentration (MIC) was above 32 µM. Turning to `O=C(COc1ncnc2ccccc12)Nc1ccccc1`, the MIC amounted to 8 µM (≈ 2.23 µg/mL). With `O=C(Cn1cnc2ccccc2c1=O)Nc1ccc(OC(F)(F)F)cc1`, the MIC was above 32 µM. Regarding `O=C(COc1ncnc2ccccc12)Nc1ccc(OC(F)(F)F)cc1`, the MIC is above 32 µM.
